Results reported in patent US20240245703A1, “TOPICAL APPLICATION OF AGENTS TO REDUCE SUN SENSITIVITY AND IMPROVE TOPICAL PHOTODYNAMIC THERAPY” (Wright State University, priority 2021, published 2024).

Test system: aSMase
Assay: not given
Settings: 10 micromolar, PC12 cells, incubation time 0.5 h; % of corresponding control values; cited from earlier work

Row | SMILES | Residual ASM Activity
1 | Clc1ccccc1CNCC1CCC(CNCc2ccccc2Cl)CC1 (centres unmarked) [AY9944, N-[(2-chlorophenyl)methyl]-1-[4-[[(2-chlorophenyl)methylamino]methyl]cyclohexyl]methanamine] | 22.1%
2 | CN1[C@@H]2CC[C@H]1C[C@@H](OC(c1ccccc1)c1ccccc1)C2 [Benztropine] | 12.7%
3 | CCN(CC)CCOc1ccc(C(=C(Cl)c2ccccc2)c2ccccc2)cc1 [Clomiphene] | 13.0%
4 | CN(C)CCCN1c2ccccc2CCc2ccc(Cl)cc21 [Clomipramine] | 21.8%
5 | CN(C)CCC=C1c2ccccc2C=Cc2ccccc21 [Cyclobenzaprine] | 26.2%
6 | CNCCCN1c2ccccc2CCc2ccccc21 [Desipramine] | 15.6%
7 | CC(NCCC(c1ccccc1)c1ccccc1)c1ccccc1 (centres unmarked) [Fendiline] | 25.2%
8 | CNCCC(Oc1ccc(C(F)(F)F)cc1)c1ccccc1 (centres unmarked) [Fluoxetine] | 13.0%
9 | OCCN1CCN(CC/C=C2/c3ccccc3Sc3ccc(C(F)(F)F)cc32)CC1 [Flupenthixol] | 18.2%
10 | CNCCCC12CCC(c3ccccc31)c1ccccc12 [Maprotiline] | 13.5%
11 | NCCC(Oc1ccc(C(F)(F)F)cc1)c1ccccc1 (centres unmarked) [Norfluoxetine] | 22.5%
12 | CNCCC=C1c2ccccc2CCc2ccccc21 [Nortriptyline] | 13.3%
13 | Fc1ccc([C@@H]2CCNC[C@H]2COc2ccc3c(c2)OCO3)cc1 [Paroxetine] | 31.7%
14 | C1CCC(C(CC2CCCCN2)C2CCCCC2)CC1 (centres unmarked) [Perhexiline] | 8.5%
15 | OCCN1CCN(CCCN2c3ccccc3Sc3ccc(Cl)cc32)CC1 [Perphenazine] | 20.1%
16 | CCN(CC)C(C)CN1c2ccccc2Sc2ccccc21 (centres unmarked) [Profenamine] | 29.7%
17 | CN(C)CCCN1c2ccccc2Sc2ccccc21 [Promazine] | 33.6%
18 | CC(CN1c2ccccc2Sc2ccccc21)N(C)C (centres unmarked) [Promethazin] | 32.2%
19 | CNCCCC1c2ccccc2C=Cc2ccccc21 [Protriptyline] | 12.7%
20 | CN[C@H]1CC[C@@H](c2ccc(Cl)c(Cl)c2)c2ccccc21 [Sertraline] | 12.3%
21 | CC(C)(C)c1ccc(C(O)CCCN2CCC(C(O)(c3ccccc3)c3ccccc3)CC2)cc1 (centres unmarked) [Terfenadine] | 21.8%
22 | CN(C)CCCN1c2ccccc2Sc2ccc(C(F)(F)F)cc21 [Triflupromazine] | 29.5%
23 | CC(CN(C)C)CN1c2ccccc2CCc2ccccc21 (centres unmarked) [Trimipramine] | 13.8%

Same assay, conditions: 10 micromolar, PC12 cells, incubation time 6 h; % of corresponding control values; cited from earlier work

Row | SMILES | Residual ASM Activity
24 | CCN(CC)CCCN(c1ccccc1)C1Cc2ccccc2C1 [Aprindine] | 27.5%
25 | COc1ccc(CCN2CCC(Nc3nc4ccccc4n3Cc3ccc(F)cc3)CC2)cc1 [Astemizole] | 14.3%
26 | COCC(=O)O[C@]1(CCN(C)CCCc2nc3ccccc3[nH]2)CCc2cc(F)ccc2[C@@H]1C(C)C [Mibefradil] | 20.8%
27 | OC1(c2ccc(Cl)c(C(F)(F)F)c2)CCN(CCCC(c2ccc(F)cc2)c2ccc(F)cc2)CC1 [Penfluridol] | 22.0%
28 | CC/C(=C(\c1ccccc1)c1ccc(OCCN(C)C)cc1)c1ccccc1 [Tamoxifen] | 4.1%
29 | CSc1ccc2c(c1)N(CCC1CCCCN1C)c1ccccc1S2 (centres unmarked) [Thioridazin] | 10.4%
30 | CN1CCN(CCCN2c3ccccc3Sc3ccc(C(F)(F)F)cc32)CC1 [Trifluoperazine] | 8.3%
31 | c1cc(CN2CCCCC2)cc(OCCCNc2nc3ccccc3s2)c1 [Zolantidine_(SKB41), Zolantidine] | 21.6%

Same assay, conditions: 10 micromolar, PC12 cells, incubation time 24 h; % of corresponding control values; cited from earlier work

Row | SMILES | Residual ASM Activity
32 | CCN(CCCc1ccccc1)CCCc1ccccc1 [Alverine] | 21.7%
33 | CCCCc1oc2ccccc2c1C(=O)c1cc(I)c(OCCN(CC)CC)c(I)c1 [Amiodarone] | 14.5%
34 | CC(C)COCC(CN(Cc1ccccc1)c1ccccc1)N1CCCC1 (centres unmarked) [Bepridil] | 27.1%
35 | OC(CCN1CCCCC1)(c1ccccc1)C1CC2C=CC1C2 (centres unmarked) [Biperidene] | 26.2%
36 | CCN(CC)CCNC(C(=O)OCCC(C)C)c1ccccc1 (centres unmarked) [Camylofin] | 21.7%
37 | COc1ccccc1OCCNCC(O)COc1cccc2[nH]c3ccccc3c12 (centres unmarked) [Carvedilol] | 22.4%
38 | Clc1ccc(C(OCCN2CCCCC2)c2ccccc2)cc1 (centres unmarked) [Cloperastine] | 26.7%
39 | C[C@H]1[C@H]2CC[C@H]3[C@@H]4CC=C5C[C@@H](N(C)C)CC[C@]5(C)[C@H]4CC[C@]23CN1C [Conessine] | 20.8%
40 | CCN(CC)CCOC(=O)C(c1ccccc1)C1CCCCC1 (centres unmarked) [Drofenine] | 20.8%
41 | CC[C@H]1CN2CCc3cc(OC)c(OC)cc3[C@@H]2C[C@@H]1C[C@H]1NCCc2cc(OC)c(OC)cc21 [Emetine] | 0.4%
42 | CN(CCCN1c2ccccc2CCc2ccccc21)CC(=O)c1ccc(Cl)cc1 [Lofepramine] | 19.2%
43 | CN(C)C(=O)C(CCN1CCC(O)(c2ccc(Cl)cc2)CC1)(c1ccccc1)c1ccccc1 [Loperamide] | 24.4%
44 | CCN(CCCCOC(=O)c1ccc(OC)c(OC)c1)C(C)Cc1ccc(OC)cc1 (centres unmarked) [Mebeverine] | 31.8%
45 | CN1CCC(=C2c3ccccc3Sc3ccccc32)CC1 [Pimethixene] | 16.5%
46 | C[C@H]1CC[C@]2(NC1)O[C@H]1C[C@H]3[C@@H]4CC[C@H]5C[C@@H](O)CC[C@]5(C)[C@H]4CC[C@]3(C)[C@H]1[C@@H]2C [Tomatidine] | 15.8%

Same assay, conditions: 10 micromolar, PC12 cells, incubation time 48 h; % of corresponding control values; cited from earlier work

Row | SMILES | Residual ASM Activity
47 | CN(Cc1cc(Br)cc(Br)c1N)C1CCCCC1 [Bromhexine] | 102.8%
48 | CC(C)/N=c1\cc2n(-c3ccc(Cl)cc3)c3ccccc3nc-2cc1Nc1ccc(Cl)cc1 [Clofazimine] | 23.7%
49 | Fc1ccc(C(c2ccc(F)cc2)N2CCN(C/C=C/c3ccccc3)CC2)cc1 [Flunarizine] | 32.7%

Same assay, conditions: from Kornhuber et al. 2008; cited from earlier work

Row | SMILES | residual aSMase activity after treatment
50 | O=C(CCCN1CCC(O)(c2ccc(Cl)cc2)CC1)c1ccc(F)cc1 [haloperidol] | 86.1%

Test system: not given
Assay: not given
Settings: hairless mice, effect of propylene glycol; cited from earlier work

Row | SMILES | absorption with propylene glycol
51 | CNCCCN1c2ccccc2CCc2ccccc21 [Desipramine] | enhances absorption
52 | CNCCC=C1c2ccccc2CCc2ccccc21 [Nortriptyline] | enhances absorption

Test system: HaCaT keratinocytes
Assay: PDT (5-ALA + blue light) MVP release in HaCaT keratinocytes
Assay type: cell-based, human
Settings: HaCaT, 1 mM 5-ALA 4 hours then 2.5-20 J/cm^2 blue light, 4 h
Method: PDT results in acute cellular destruction and inflammation and photosensitivity, as well as delayed immunosuppression. […] Thus, it was of further interest whether experimental PDT of HaCaT keratinocytes generated MVP in vitro. To that end, HaCaT cells were pretreated with 5-ALA alone, or blue light alone, or a 4 hour incubation of 5-ALA in the dark followed by various fluences of blue light, and MVP were measured in the supernatants at 4 hours post blue light. 100 nM CPAF and TPA were used as positive controls for MVP release.
For the data shown in FIG. 14, HaCaT keratinocytes were treated with sham (no treatment), 0.1% ethanol vehicle control (VEH), 100 nM TPA, 100 nM CPAF, 1 mM 5-ALA for 4 hours, or 5-ALA followed by various fluences (2.5-20 J/cm^2) of blue light or blue light alone. Levels of MVPs released into supernatants were measured at 4 hours. […] For the data shown in FIG. 15, human skin explants were treated with sham, 100 μL vehicle (90% ethanol+10% DMSO) (VEH), 1 μM TPA, 1 µM CPAF, 1 mM 5-ALA for 4 hours, blue light or 5-ALA+blue light at 20 J/cm^2. After four hours, duplicate 6-mm punch biopsies were obtained, weighed, and MVPs were measured. The data are the mean±SE from 3-4 separate experiments conducted in duplicate. * Denotes statistically significant (P <0.05) changes from sham values.
Supernatants were collected at 4 hours and MVP measured. The data are the mean±SE MVP fold change from sham-treated values. For the data shown in FIG. 17, human skin explants were treated as in FIG. 15, with the exception that in some experiments 100 μL of 5 mM IMIP was added post-PDT. MVP were measured in duplicate 6-mm punch biopsies obtained 4 hours post-treatment.

Row | SMILES | MVP generation, 5-ALA along with blue light (PDT)
53 | NCC(=O)CCC(=O)O [Compound 5-ALA, 5-aminolevulinic acid] | resulted in high levels of MVP generation in a dosage-dependent manner

Same assay, conditions: HaCaT, 1 mM 5-ALA 4 hours without blue light

Row | SMILES | MVP formation, 5-ALA alone
54 | NCC(=O)CCC(=O)O [Compound 5-ALA, 5-aminolevulinic acid] | did not generate appreciate MVP formation

Test system: PDT-induced MVP release
Assay: PDT-induced MVP release in skin and plasma of mice
Assay type: in vivo
Settings: topical application, aSMase KO mice, data not shown
Method: Next, the role of PAF and aSMase in PDT-induced MVP release was assessed. […] Next, the ability of topical PDT to generate MVP in vivo in mice, and the role of aSMase in this process, was determined. […] Two approaches were used to determine if PDT-induced MVP involved aSMase.
The role of aSMase in PDT-mediated MVP release was evaluated in a murine system. For the data shown in FIG. 18, wild-type mice were treated with either sham, 100 μl of 5 mM IMIP, or 90% polyethylene glycol: 10% DMSO vehicle, or 1 μM TPA (as a positive control for MVP release), or PDT using 20 J/cm^2 blue light. Immediately following PDT, the treated areas were given vehicle or imipramine. At 4 hours post-treatment, the mice were euthanized and MVP were measured from duplicate 6-mm punch biopsies and plasma. The data are mean±SD fold increase in MVP normalized to tissue weight/plasma volume. * Denotes statistically significant (P<0.05) changes from sham; #statistically significant (P<0.05) changes from comparator denoted by line by two-way ANOVA; NS not statistically significant.
To confirm the role of aSMase in PDT-induced MVP generation, PDT effects were evaluated in the absence of aSMase was evaluated in a murine system. For the data shown in FIG. 19, wild-type or aSMase-deficient (Smpd1−/−) mice underwent sham or PDT using 20 J/cm^2 blue light. At 4 hours post-treatment, the mice were euthanized and MVP were measured from duplicate 6-mm punch biopsies and plasma. The data are mean±SD fold increase in MVP normalized to tissue weight/plasma volume. * Denotes statistically significant (P<0.05) changes from sham; NS not statistically significant.

Row | MVP generation in aSMase KO mice | SMILES
55 | generates MVP in the aSMase KO mice | CCCCCCCCCCCCC/C=C/[C@@H](O)[C@H](CO)NC(C)=O [C-2 ceramide]

Same assay, conditions: wild-type mice, 1 μM TPA, positive control, 4 h

Row | SMILES | MVP levels after topical TPA
56 | CCCCCCCCCCCCCC(=O)O[C@@H]1[C@@H](C)[C@@]2(O)[C@@H](C=C(CO)C[C@]3(O)C(=O)C(C)=C[C@@H]23)[C@@H]2C(C)(C)[C@]12OC(C)=O [TPA, 12-O-tetradecanoylphorbol-13-acetate] | resulted in increased levels of MVP
